This is an account of results in US20250275991A1, “ORAL COMPLEMENT FACTOR D INHIBITORS” (BioCryst Pharmaceuticals, Inc, priority 2019, published 2025).

Structures are written as SMILES. A value given as a limit tells only on which side of the number the result lay.

For orientation: IC50 means the concentration at which inhibition is half-maximal.

Sequence of Factor D (P00746 26-253): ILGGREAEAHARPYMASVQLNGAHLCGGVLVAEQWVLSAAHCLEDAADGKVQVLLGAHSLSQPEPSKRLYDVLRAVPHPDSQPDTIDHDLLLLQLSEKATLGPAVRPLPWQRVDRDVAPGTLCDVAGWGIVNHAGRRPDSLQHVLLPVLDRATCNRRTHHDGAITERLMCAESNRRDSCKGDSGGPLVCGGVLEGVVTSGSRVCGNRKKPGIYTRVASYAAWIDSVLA

The experiment addresses Factor D (Homo sapiens, UniProt P00746). Put plainly: Factor D esterolytic assay. The class given is biochemical. The conditions noted are these: substrate Z-Lys-SBzl 1.29 mM, 100 mM HEPES, 500 mM NaCl, pH 7.5, 10% DMSO, tested a minimum of three times. As for the experimental part: The IC50 value of a compound (i.e., the concentration of the compound that inhibits 50% of the enzymatic activity) was calculated according to the procedure reported in U.S. Pat. No. 6,653,340 B1, e.g., column 74 (incorporated by reference).
Specifically, the compounds were dissolved in a stock solution of DMSO at 10.0 or 100 mM. A portion of this stock solution was added to assay buffer in a final volume of 50 μL. Controls included buffer alone and enzyme solutions to which DMSO was added. Substrate was added to the reaction wells immediately or after incubation at room temperature. The reaction rates were measured spectrophotometrically by the generation of product at 405 nm for 600 sec. Background absorbance at 690 nm was measured and subtracted from the absorbance at 405 nm for each well.
The reaction rate for enzyme alone was compared to the rate of enzyme in the presence of inhibitor and the percent inhibition was calculated as shown below: […]
An established esterolytic assay for the measurement of Factor D activity and inhibition of Factor D activity was used (Kam, C. M.; McRae, B. J.; Harper, J. W.; Niemann, M. A.; Volanakis, J. E.; Powers, J. C. Human complement proteins D, C2, and B Active site mapping with peptide thioester substrates. J Biol. Chem. 1987, 262, 3444-3451). For this assay Z-Lys-SBzl, 1.29 mM (Kim, S.; Narayana, S. V. L; Volanakis, J. E. Mutational analysis of the substrate binding site of human complement Factor D. Biochemistry. 1994, 33, 14393-14399.) was used as the substrate for Factor D ([…]). Hydrolysis of this compound by Factor D liberated a free sulfhydryl group which is then reacted with 5,5′-dithiobis(2nitrobenzoic acid) producing an intense yellow color (Habeeb, A. F. S. A. Reaction of protein sulfhydryl groups with Ellman's Reagent. Methods in Enzymol. 1976, 25, 457-464). The assays were performed in 96 well microtiter plates and rates of hydrolysis were monitored at 405 nm on a Biotek Synergy H1 plate reader. Hydrolysis rates were reported as change in mOD/min. The assay was conducted in 100 mM HEPES, 500 mM NaCl, pH 7.5 containing 10% DMSO in a final volume of 50 μL per well.
An IC50, a compound concentration which inhibits 50% of the enzymatic activity, was calculated. Compounds in the examples were tested a minimum of three times.
In the case of `COc1ccc(CC(=O)O)c(OCc2cc(-c3cccc(C(N)CF)c3)c3occc3c2)c1` (single isomer, unassigned; (+)) [Compound 14k, (+)-2-(2-((7-(3-(1-amino-2-fluoroethyl)phenyl)benzofuran-5-yl)methoxy)-4-methoxyphenyl)acetic acid], the IC50 was < 1000 nM.

For the compound `NC(CF)c1cccc(-c2cc(COc3cc(F)ccc3CC(=O)O)cc3ccoc23)c1` (single isomer, unassigned; (+)) [Compound 15f, (+)-2-(2-((7-(3-(1-amino-2-fluoroethyl)phenyl)benzofuran-5-yl)methoxy)-4-fluorophenyl)acetic acid], the IC50 was < 1000 nM.

With `NCc1cccc(-c2cc(COc3ccccc3C(NC(=O)C3CC3)C(=O)O)cc3ccoc23)c1` (single isomer, unassigned; (+)) [Compound 52f, (+)-2-(2-((7-(3-(aminomethyl)phenyl)benzofuran-5-yl)methoxy)phenyl)-2-(cyclopropanecarboxamido)acetic acid], the IC50 is < 1000 nM.

Turning to `CCOC(=O)NC(C)c1ccc(CC(=O)O)c(OCc2cc(-c3cccc(CN)c3)c3occc3c2)c1` (single isomer, unassigned; (+)) [Compound 54g, (+)-2-(2-((7-(3-(aminomethyl)phenyl)benzofuran-5-yl)methoxy)-4-(1-(ethoxycarbonylamino)ethyl)phenyl)acetic acid], the IC50 is < 1000 nM.

With `CC(N)c1ccc(CC(=O)O)c(OCc2cc(-c3cccc(CN)c3)c3occc3c2)c1` (single isomer, unassigned; (+)) [Compound 60a, (+)-2-(4-(1-aminoethyl)-2-((7-(3-(aminomethyl)phenyl)benzofuran-5-yl)methoxy)phenyl)acetic acid], the IC50 is < 1000 nM.

Consider `CC(Oc1ccccc1CC(=O)O)c1cc(-c2cccc(CN)c2)c2occc2c1` (single isomer, unassigned; (+)) [Compound 77f, (+)-2-(2-(1-(7-(3-(aminomethyl)phenyl)benzofuran-5-yl)ethoxy)phenyl)acetic acid], for which the IC50 is < 1000 nM.

As for `NCc1cccc(-c2cc(COc3ccccc3C(NC(=O)C3CC3)C(=O)O)cc3ccoc23)c1` (single isomer, unassigned; (-)) [Compound 51f, (−)-2-(2-((7-(3-(aminomethyl)phenyl)benzofuran-5-yl)methoxy)phenyl)-2-(cyclopropanecarboxamido)acetic acid], the IC50 is < 1000 nM.

`CCOC(=O)NC(C)c1ccc(CC(=O)O)c(OCc2cc(-c3cccc(CN)c3)c3occc3c2)c1` (single isomer, unassigned; (-)) [Compound 55e, (−)-2-(2-((7-(3-(aminomethyl)phenyl)benzofuran-5-yl)methoxy)-4-(1-((ethoxycarbonyl)amino)ethyl)phenyl)acetic acid]: the IC50 was < 1000 nM.

As for `CC(N)c1ccc(CC(=O)O)c(OCc2cc(-c3cccc(CN)c3)c3occc3c2)c1` (single isomer, unassigned; (-)) [Compound 61a, (−)-2-(4-(1-aminoethyl)-2-((7-(3-(aminomethyl)phenyl)benzofuran-5-yl)methoxy)phenyl)acetic acid], the IC50 is < 1000 nM.

On to `CC(Oc1ccccc1CC(=O)O)c1cc(-c2cccc(CN)c2)c2occc2c1` (single isomer, unassigned; (-)) [Compound 77g, (−)-2-(2-(1-(7-(3-(aminomethyl)phenyl)benzofuran-5-yl)ethoxy)phenyl)acetic acid], for which the IC50 was < 1000 nM.

As to `CCC(N)c1cc(-c2cc(COc3ccccc3CC(=O)O)cc3ccoc23)cs1` (stereo not shown) [Compound 1j, 2-(2-((7-(5-(1-aminopropyl)thiophen-3-yl)benzofuran-5-yl)methoxy)phenyl)acetic acid], the IC50 was 1000 to 10000 nM.

Regarding `CCC(N)c1cccc(-c2cc(COc3ccccc3CC(=O)O)cc3ccoc23)c1` (stereo not shown) [Compound 2f, 2-(2-((7-(3-(1-aminopropyl)phenyl)benzofuran-5-yl)methoxy)phenyl)acetic acid], the IC50 was < 1000 nM.

Turning to `CC(C)C(N)c1cccc(-c2cc(COc3ccccc3CC(=O)O)cc3ccoc23)c1` (stereo not shown) [Compound 3c, 2-(2-((7-(3-(1-amino-2-methylpropyl)phenyl)benzofuran-5-yl)methoxy)phenyl)acetic acid], the IC50 lay within 1000 to 10000 nM.

As for `CC(N)c1cc(-c2cc(COc3ccccc3CC(=O)O)cc3ccoc23)cs1` (stereo not shown) [Compound 4c, 2-(2-((7-(5-(1-aminoethyl)thiophen-3-yl)benzofuran-5-yl)methoxy)phenyl)acetic acid], the IC50 is > 10000 nM.

With `NCc1nc(-c2cc(COc3ccccc3CC(=O)O)cc3ccoc23)cs1` [Compound 5e, 2-(2-((7-(2-(aminomethyl)thiazol-4-yl)benzofuran-5-yl)methoxy)phenyl)acetic acid], the IC50 is < 1000 nM.

Consider `NCc1csc(-c2cc(COc3ccccc3CC(=O)O)cc3ccoc23)n1` [Compound 6e, 2-(2-((7-(4-(aminomethyl)thiazol-2-yl)benzofuran-5-yl)methoxy)phenyl)acetic acid], for which the IC50 was < 1000 nM.

In the case of `CC(N)c1nc(-c2cc(COc3ccccc3CC(=O)O)cc3ccoc23)cs1` (stereo not shown) [Compound 7e, 2-(2-((7-(2-(1-aminoethyl)thiazol-4-yl)benzofuran-5-yl)methoxy)phenyl)acetic acid], the IC50 was in the range of 1000 to 10000 nM.

As to `NCc1cc(-c2cc(COc3ccccc3CC(=O)O)cc3ccoc23)c[nH]1` [Compound 8g, 2-(2-((7-(5-(aminomethyl)-1H-pyrrol-3-yl)benzofuran-5-yl)methoxy)phenyl)acetic acid], the IC50 fell in the range of 1000 to 10000 nM.

As for `NCc1cccc(-c2cc(COc3cc(C(=O)O)ccc3CC(=O)O)cc3ccoc23)c1` [Compound 9d, 3-((7-(3-(aminomethyl)phenyl)benzofuran-5-yl)methoxy)-4-(carboxymethyl)benzoic acid], the IC50 was < 1000 nM.

On to `NCc1cccc(-c2cc(COc3cc(OC(F)(F)F)ccc3CC(=O)O)cc3ccoc23)c1` [Compound 10d, 2-(2-((7-(3-(aminomethyl)phenyl)benzofuran-5-yl)methoxy)-4-(trifluoromethoxy)phenyl)acetic acid], for which the IC50 is < 1000 nM.

As to `NCc1nccc(-c2cc(COc3ccc(F)cc3CC(=O)O)cc3c(C(F)(F)F)coc23)c1F` [Compound 11m, 2-(2-((7-(2-(aminomethyl)-3-fluoropyridin-4-yl)-3-(trifluoromethyl)benzofuran-5-yl)methoxy)-5-fluorophenyl)acetic acid], the IC50 is < 1000 nM.

For the compound `COCc1cc2cc(COc3cc(C(C)=O)ccc3CC(=O)O)cc(-c3cccc(CN)c3)c2o1` [Compound 12j, 2-(4-acetyl-2-((7-(3-(aminomethyl)phenyl)-2-(methoxymethyl)benzofuran-5-yl)methoxy)phenyl)acetic acid], the IC50 is < 1000 nM.

`CC(=O)c1ccc(CC(=O)O)c(OCc2cc(-c3ccnc(CN)c3F)c3occ(C(F)(F)F)c3c2)c1` [Compound 13f, 2-(4-acetyl-2-((7-(2-(aminomethyl)-3-fluoropyridin-4-yl)-3-(trifluoromethyl)benzofuran-5-yl)methoxy)phenyl)acetic acid]: the IC50 was < 1000 nM.

For `NCc1cccc(-c2cc(COc3ccc(F)cc3CC(=O)O)cc3cc(F)oc23)c1` [Compound 16f, 2-(2-((7-(3-(aminomethyl)phenyl)-2-fluorobenzofuran-5-yl)methoxy)-5-fluorophenyl)acetic acid], the IC50 is < 1000 nM.

As for `NCc1nccc(-c2cc(COc3ccc(F)cc3CC(=O)O)cc3cc(F)oc23)c1F` [Compound 17d, 2-(2-((7-(2-(aminomethyl)-3-fluoropyridin-4-yl)-2-fluorobenzofuran-5-yl)methoxy)-5-fluorophenyl)acetic acid], the IC50 was < 1000 nM.

With `NCc1cccc(-c2cc(COc3ccc(F)cc3CC(=O)O)cc3cc(F)oc23)c1F` [Compound 18c, 2-(2-((7-(3-(aminomethyl)-2-fluorophenyl)-2-fluorobenzofuran-5-yl)methoxy)-5-fluorophenyl)acetic acid], the IC50 is < 1000 nM.

Regarding `COC(=O)Nc1ccc(CC(=O)O)c(OCc2cc(-c3cccc(CN)c3)c3occc3c2)c1` [Compound 19i, 2-(2-((7-(3-(aminomethyl)phenyl)benzofuran-5-yl)methoxy)-4-((methoxycarbonyl)amino)phenyl)acetic acid], the IC50 is < 1000 nM.

As for `CC(C)OC(=O)Nc1ccc(CC(=O)O)c(OCc2cc(-c3cccc(CN)c3)c3occc3c2)c1` [Compound 20h, 2-(2-((7-(3-(aminomethyl)phenyl)benzofuran-5-yl)methoxy)-4-((isopropoxycarbonyl)amino)phenyl)acetic acid], the IC50 was < 1000 nM.
